Measured values taken from ChEMBL document CHEMBL4739718, “Substituted 5-cyclopropyl-1h-pyrazol-3-yl-amine derivatives as selective cdk12/13 inhibitors” (2020).
pIC50: −log10 of the molar value.

What was measured:
[1] = molecular target: T1, Cyclin-dependent kinase 7 (Homo sapiens, UniProt P50613); test: Inhibition of CDK7 (unknown origin) assessed as reduction in ATP-dependent phosphorylation of ULight-myelin basic protein substrate peptide incubated for 60 mins by LANCE TR-FRET assay
[2] = molecular target: Cyclin-dependent kinase 12 (Homo sapiens) (UniProt Q9NYV4); test: Binding affinity to CDK12 in human Jurkat cells assessed as target occupancy level incubated for 2 hrs by measuring Bio-THZ531 bound protein level by spectrophotometry based plate based target engagement assay; format: cell-based
[3] = molecular target: T1, Cyclin-dependent kinase 7; test: Binding affinity to CDK7 in human Jurkat cells assessed as target occupancy level incubated for 2 hrs by measuring Bio-THZ531 bound protein level by spectrophotometry based plate based target engagement assay; format: cell-based

T1 sequence (P50613 whole entry): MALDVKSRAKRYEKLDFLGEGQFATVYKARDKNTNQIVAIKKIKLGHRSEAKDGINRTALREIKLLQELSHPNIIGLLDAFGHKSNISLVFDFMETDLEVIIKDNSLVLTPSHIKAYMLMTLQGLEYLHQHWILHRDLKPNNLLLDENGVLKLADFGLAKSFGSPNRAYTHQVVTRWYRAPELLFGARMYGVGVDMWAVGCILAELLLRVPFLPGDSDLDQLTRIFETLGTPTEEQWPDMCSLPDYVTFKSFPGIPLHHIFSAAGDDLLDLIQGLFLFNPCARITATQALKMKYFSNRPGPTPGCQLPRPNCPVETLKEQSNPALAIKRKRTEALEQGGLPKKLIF
Sequence of Cyclin-dependent kinase 12 (Homo sapiens) (Q9NYV4 whole entry, looked up): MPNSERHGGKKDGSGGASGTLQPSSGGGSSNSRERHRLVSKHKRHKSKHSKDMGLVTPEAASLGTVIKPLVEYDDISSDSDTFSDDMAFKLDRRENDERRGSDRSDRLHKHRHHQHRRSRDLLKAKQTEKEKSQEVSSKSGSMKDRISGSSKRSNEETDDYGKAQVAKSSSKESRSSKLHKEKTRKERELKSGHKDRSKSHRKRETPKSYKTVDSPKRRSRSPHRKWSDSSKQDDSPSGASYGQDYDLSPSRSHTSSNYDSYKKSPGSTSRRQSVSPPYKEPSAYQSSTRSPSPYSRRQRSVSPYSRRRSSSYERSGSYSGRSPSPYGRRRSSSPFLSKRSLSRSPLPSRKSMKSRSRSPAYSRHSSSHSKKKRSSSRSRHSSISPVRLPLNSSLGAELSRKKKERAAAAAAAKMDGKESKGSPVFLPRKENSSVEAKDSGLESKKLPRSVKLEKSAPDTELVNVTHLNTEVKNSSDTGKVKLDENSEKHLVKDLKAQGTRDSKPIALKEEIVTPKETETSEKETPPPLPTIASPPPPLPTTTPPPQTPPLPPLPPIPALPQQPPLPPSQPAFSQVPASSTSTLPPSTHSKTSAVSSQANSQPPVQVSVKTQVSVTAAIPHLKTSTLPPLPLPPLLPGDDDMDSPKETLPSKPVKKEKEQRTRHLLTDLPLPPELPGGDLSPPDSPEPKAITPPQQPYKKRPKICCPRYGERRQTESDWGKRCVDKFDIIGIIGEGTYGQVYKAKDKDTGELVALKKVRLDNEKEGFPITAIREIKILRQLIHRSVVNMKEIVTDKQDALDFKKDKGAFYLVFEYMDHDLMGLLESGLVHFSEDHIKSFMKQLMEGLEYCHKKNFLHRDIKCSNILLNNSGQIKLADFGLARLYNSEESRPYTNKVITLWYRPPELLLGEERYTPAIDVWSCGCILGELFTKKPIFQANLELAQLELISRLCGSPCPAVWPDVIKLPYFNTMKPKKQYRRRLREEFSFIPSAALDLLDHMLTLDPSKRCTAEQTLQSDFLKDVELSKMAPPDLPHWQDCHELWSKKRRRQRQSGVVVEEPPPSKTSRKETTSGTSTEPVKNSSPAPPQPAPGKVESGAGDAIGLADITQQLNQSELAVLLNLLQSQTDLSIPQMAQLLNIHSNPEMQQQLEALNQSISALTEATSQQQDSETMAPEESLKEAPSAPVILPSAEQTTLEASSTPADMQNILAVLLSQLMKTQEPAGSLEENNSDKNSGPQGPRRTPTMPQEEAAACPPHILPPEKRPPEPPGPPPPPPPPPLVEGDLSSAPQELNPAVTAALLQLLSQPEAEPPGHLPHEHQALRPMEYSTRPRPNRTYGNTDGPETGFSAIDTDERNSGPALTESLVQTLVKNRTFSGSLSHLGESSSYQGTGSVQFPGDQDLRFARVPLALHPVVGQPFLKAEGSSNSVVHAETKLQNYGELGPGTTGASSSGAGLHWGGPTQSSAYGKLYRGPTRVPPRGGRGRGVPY

pIC50 [1] | Occ50 [2] [µM] | Occ50 [3] [µM] | SMILES
< 5.00 | – | – | CC(C(=O)Nc1cc(C2CC2)[nH]n1)c1ccc(-c2ccc(NC(=O)/C=C/CN3CCOCC3)cc2)cc1 (stereo in doubt; 12)
– | 0.23 | 0.61 | C=CC(=O)NCc1ccc(-c2ccc(C(C)C(=O)Nc3cc(C4CC4)[nH]n3)cc2)cn1 (stereo unspecified)
< 5.00 | – | – | C=CC(=O)NCc1ccc(-c2ccc(C(C)C(=O)Nc3cc(C4CC4)[nH]n3)cn2)cn1 (stereo unspecified)
– | 0.022 | > 2 | C=CC(=O)NCc1ccc(-c2ccc([C@H](C)C(=O)Nc3cc(C4CC4)[nH]n3)cc2)cn1
